# Measurements as given in patent US12411143B2, “CD146 and uses thereof as a biomarker and as a therapeutic target in the diagnosis and treatment of fibrosis” (ASSISTANCE PUBLIQUE HÔPITAUX DE MARSEILLE, priority 2018, dated 2025).
# “Also recorded” adds a separate entry of the source.
# Key:
# Type in all cases: cell-based
# [1] = test system: Human cardiac fibroblasts (HCFs); experiment: Myofibroblast marker expression in human cardiac fibroblasts (RT-PCR, western blot, immunofluorescence)
# Experimental: (§1) Human cardiac fibroblasts (HCFs) (PromoCell) are grown in Fibroblast Growth Medium 3 Supplement Pack (PromoCell) in an environment at 37° C. with controlled atmosphere. The HCFs are grown between passages 3 and 7.
# (§2) To perform the stimulations, the fibroblasts are seeded at a density of 30 000 cells/cm^2 in complete culture medium. After 24 hours of adhesion, the cell culture medium is replaced with medium not containing growth factor (minimal medium) for 4 hours.
# Total mRNA is extracted using a purification kit (RNeasy Mini, Qiagen) then eluted in 30 μL of RNase-free water. The amount of RNA is measured at 260 nm using a spectrophotometer (NanoDrop). The RNA is then converted to cDNA using 200 ng of RNA and according to the same protocol as the tissue RNA. The gene expression study is performed by real-time PCR from 10 ng of cDNA (Table 4).
# The cells are lysed at 4° C. in a buffer composed of 10 mMTris-HCl (pH 8), 1 mM EDTA, 150 mMNaCl, 10% NP40, containing a protease inhibitor cocktail (Pierce, Thermo Scientific). The cell lysate obtained is centrifuged at 4° C. and 15000 g for 10 minutes. The supernatant containing solubilized proteins is collected and the amount of proteins determined using a calibration curve of bovine serum albumin (BSA) prepared from a 1 mg/mL BSA solution diluted in the lysis buffer used during sample preparation.
# The samples are then used in western blot experiments. To that end, an aliquot containing 30 μg of proteins is taken up in 4× Laemmli buffer containing a reducing agent (Invitrogen) and then heated for 10 minutes at 75° C. before being deposited on an electrophoresis gel (NuPAGE 4-12% Bis-Tris Gel, Invitrogen). After migration of the samples, the proteins are dry-transferred to a nitrocellulose membrane (iBlot 2, Invitrogen). The membrane is blocked for 45 minutes with a Tris buffer containing 0.1% Tween 20 (TBS-T) and 4% BSA. The primary antibody (Table 5) diluted in TBS-T is hybridized for 12 hours at 4° C. and then rinsed for 3×10 minutes with TBS-T. The HRP-coupled secondary antibody (TBS-T) is hybridized for 1 hour. After rinsing, HRP activity is detected using a chemiluminescent substrate (ECL, Pierce). An antibody directed against a normalizing protein (β-tubulin), the expression of which is not modified by the experimental conditions, makes it possible to normalize the quantification and then to express the results semi-quantitatively (% control). Emitted light is captured with a camera (G:BOX). The proteins of interest are visualized as black bands on a white background. The signal thus obtained is quantified by densitometry (Image Lab Software version 4.1) (Table 5).
# The cells are fixed for 5 minutes in 70° ethanol at 4° C. and then rinsed with PBS. After 1 hour of blocking in a PBS solution containing 5% BSA, the primary antibody (anti-α-SMA, Dako-0851) diluted 1/50 and then the secondary antibody (anti-mouse antibody) coupled to a fluorescent molecule (Alexa Fluor 488) are incubated for 1.5 hours. Rinses with PBS are performed between each step. The cells are mounted in an aqueous medium containing a nuclear stain (ProLongMountant with DAPI, Invitrogen) before being observed under a fluorescence microscope.
# Modulation of α-SMA expression was examined in response to stimulation of HCFs by 50 ng/mL of CD146 for 48 hours.
# [2] = test system: human renal fibroblasts; experiment: α-SMA and vimentin mRNA expression in primary culture of human renal fibroblasts; details: sCD146 50 ng/ml, versus control without treatment
# Experimental: The effect of sCD146 (50 ng/ml) was examined on primary culture from human fibroblasts. The effect of 500 ng/ml anti-sCD146 mAb administrated either alone (Ac) or with sCD146.
# Results are mean values +/−SE of 3 experiments and expressed as fold change versus control condition without treatment.
# The effect of anti-sCD146 treatment was observed on the mRNA expression of α-SMA and vimentin in human renal fibroblast in (in vitro) culture.
# [3] = test system: Human cardiac fibroblasts (HCFs); experiment: Cell proliferation of human cardiac fibroblasts (BrdU assay)
# Experimental: as §1, §2
# This medium is then replaced with minimal medium supplemented with 25, 50, 75 or 100 ng/mL of CD146s or with 2.5, 5 or 10 ng/mL of TGF-β for the proliferation study.
# Cell proliferation is determined using a proliferation kit (BrdU Assay, Roche). An anti-BrdU antibody diluted 1/100 in its diluent solution is incubated for 90 minutes at 37° C. After removal and rinsing of excess antibody, a second antibody directed specifically against anti-BrdU and coupled to peroxidase is incubated for 30 minutes at room temperature and then removed. Detection is performed by the addition of 100 μL of enzyme substrate. […] Staining intensity, proportional to BrdU incorporation, is read on a spectrophotometer at 450 nm. The results are calculated by subtracting the background noise observed in a culture well containing no cells but having received the same amount of BrdU. Percentage of proliferation is then calculated for each condition. […]
substance,measurement,setting,value
"sCD146: recombinant human soluble form of CD146 corresponding to the shed sCD146, obtained from Biocytex",α-SMA network (indirect immunofluorescence),[1]; 50 ng/mL,establishment of a smooth muscle actin network
same,CD146 expression,"[1]; 50 ng/mL of CD146s, first results n=2",2 fold
same,α-SMA protein expression level (western blot),"[1]; 50 ng/mL, 48 hours",2.5 fold
same,α-SMA RNA expression level (overexpression),"[1]; 50 ng/mL, 48 hours, n=4",2.5 fold
same,TGF-β expression at the RNA level,"[1]; HCFs stimulated by CD146s, preliminary",increase in TGF-β expression; also recorded: able to increase TGF-β expression
same,expression of RNAs encoding fibronectin and type I collagen,"[1]; semiquantitative RT-PCR, comparable to TGF-β stimulation",increase in synthesis of fibronectin and of type I collagen
same,α-SMA and vimentin mRNA expression,[2],increase in α-SMA and vimentin mRNA expression
same,cell proliferation of cardiac fibroblasts,"[3]; 25, 50, 75 or 100 ng/mL of CD146s","significant, dose-dependent increase in cell proliferation"
same,amount giving the maximum pro-proliferative effect,[3]; HCFs,50 ng/mL
